Source: patent publication US6894063B2, “Substituted urea neuropeptide Y Y5 Receptor antagonists” (Schering Corporation, priority 2000, dated 2005)

System: D-Trp34-NPY stimulated food intake
Assay: Screening for Y5 antagonist activity in vivo: D-Trp34-NPY stimulated food intake in rats
Set-up: species or system Long-Evans or Sprague-Dawley rats
Settings: rat, oral doses 0.1, 0.3, 1 and 3 mg/kg one hour before icv D-Trp34-NPY; food consumption monitored at 60, 120 and 240 min
Protocol: Method for Screening Compound 14 of Example 14 for Y5 Antagonist Activity In Vivo
Adult male Long-Evans or Sprague-Dawley rats (200-250 g, Charles River, Mass.) were maintained in individual cages at 22° C. on a 12 hr light/12 hr dark cycle with lights on at 0400. Rats had free access to food (Teklad Lab Rodent Chow, Bartonville, Ill.) and water. All studies were conducted in an AAALAC accredited facility following protocols approved by the Animal Care and Use Committee of the Schering-Plough Research Institute. The procedures were performed in accordance with the principles and guidelines established by the NIH for the care and use of laboratory animals.
Rats were anesthetized by intramuscular injection of a mixture of ketamine and xylazine (100 and 10 mg/kg, respectively). A 22 gauge stainless steel cannula was stereotaxically implanted into the lateral ventricle using the following coordinates: 1 mm posterior to bregma, 1.5 mm lateral to midline, 3.6 mm ventral to dura. After a three week recovery period, all animals were tested for correct cannula placement by intracerebroventricular (icv) infusion of human NPY ([…]). […] Food consumption was monitored at 60, 120 and 240 min after icv infusion of peptides. Differences in food intake between groups were determined by analysis of variance followed by Dunnett's multiple comparison test.

CN(C(=O)Nc1ccc(-c2cc(F)cc(F)c2)cc1)C1CCN(c2nccs2)CC1 [Example 14]
ID50, inhibition of D-Trp34-NPY stimulated food intake: 0.5 mg/kg
